Data as given in patent publication US20120053053A1, “PYRIMIDINE DERIVATIVES AND THEIR USE AS HERBICIDES” (SYNGENTA CROP PROTECTION, LLC, priority 2009, published 2012).

Legend:
Format in all cases: in vivo
Solanum nigrum (SOLNI) [1] = experiment: Pre-emergence biological efficacy (percentage damage); conditions: Solanum nigrum, 312 h, evaluated after 13 days, 100=total damage, 0=no damage; for pest or weed control at 1000 g/ha: dose 1,000 g/ha
Method: (§1) Seeds of Alopecurus myosuroides (ALOMY), Setaria faberi (SETFA), Echinochloa crus-galli (ECHCG), Solanum nigrum (SOLNI), Amaranthus retoflexus (AMARE) and Ipomea hederaceae (IPOHE) were sown in standard soil in pots. After cultivation for one day under controlled conditions in a glasshouse (at 24/16° C., day/night; 14 hours light; 65% humidity), the plants were sprayed with an aqueous spray solution derived from the formulation of the technical active ingredient in acetone/water (50:50) solution containing 0.5% Tween 20 (polyoxyethylene sorbitan monolaurate, CAS RN 9005-64-5) to give a final dose of 250 or 1000 g/ha of test compound. The test plants were then grown under controlled conditions in the glasshouse (at 24/16° C., day/night; 14 hours light; 65% humidity) and watered twice daily. After 13 days the test was evaluated (100=total damage to plant; 0=no damage to plant).

[2] = test system: Ipomea hederaceae (IPOHE); experiment: as above; conditions: Ipomoea hederacea, 312 h, evaluated after 13 days, 100=total damage, 0=no damage; for pest or weed control at 1000 g/ha: dose 1,000 g/ha
Method: as §1

[3] = test system: Alopecurus myosuroides (ALOMY); experiment: as above; conditions: Alopecurus myosuroides, 312 h, evaluated after 13 days, 100=total damage, 0=no damage; for pest or weed control at 1000 g/ha: dose 1,000 g/ha
Method: as §1

[4] = test system: Amaranthus retoflexus (AMARE); experiment: as above; conditions: Amaranthus retroflexus, 312 h, evaluated after 13 days, 100=total damage, 0=no damage; for pest or weed control at 1000 g/ha: dose 1,000 g/ha
Method: as §1

Setaria faberi (SETFA) [5] = experiment: as above; conditions: Setaria faberi, 312 h, evaluated after 13 days, 100=total damage, 0=no damage; for pest or weed control at 1000 g/ha: dose 1,000 g/ha
Method: as §1

[6] = test system: Echinochloa crus-galli (ECHCG); experiment: as above; conditions: Echinochloa crus-galli, 312 h, evaluated after 13 days, 100=total damage, 0=no damage; for pest or weed control at 1000 g/ha: dose 1,000 g/ha
Method: as §1

Solanum nigrum (SOLNI) [7] = experiment: Post-emergence biological efficacy (percentage damage); conditions: Solanum nigrum, 312 h, evaluated after 13 days, 100=total damage, 0=no damage; for pest or weed control at 1000 g/ha: dose 1,000 g/ha
Method: as §1, with “for 8 days” for “for one day”, “grown on” for “grown”, “in a” for “in the”

[8] = test system: Ipomea hederaceae (IPOHE); experiment: as above; conditions: Ipomoea hederacea, 312 h, evaluated after 13 days, 100=total damage, 0=no damage; for pest or weed control at 1000 g/ha: dose 1,000 g/ha
Method: as §1, with “for 8 days” for “for one day”, “grown on” for “grown”, “in a” for “in the”

[9] = test system: Alopecurus myosuroides (ALOMY); experiment: as above; conditions: Alopecurus myosuroides, 312 h, evaluated after 13 days, 100=total damage, 0=no damage; for pest or weed control at 1000 g/ha: dose 1,000 g/ha
Method: as §1, with “for 8 days” for “for one day”, “grown on” for “grown”, “in a” for “in the”

[10] = test system: Amaranthus retoflexus (AMARE); experiment: as above; conditions: Amaranthus retroflexus, 312 h, evaluated after 13 days, 100=total damage, 0=no damage; for pest or weed control at 1000 g/ha: dose 1,000 g/ha
Method: as §1, with “for 8 days” for “for one day”, “grown on” for “grown”, “in a” for “in the”

Setaria faberi (SETFA) [11] = experiment: as above; conditions: Setaria faberi, 312 h, evaluated after 13 days, 100=total damage, 0=no damage; for pest or weed control at 1000 g/ha: dose 1,000 g/ha
Method: as §1, with “for 8 days” for “for one day”, “grown on” for “grown”, “in a” for “in the”

[12] = test system: Echinochloa crus-galli (ECHCG); experiment: as above; conditions: Echinochloa crus-galli, 312 h, evaluated after 13 days, 100=total damage, 0=no damage; for pest or weed control at 1000 g/ha: dose 1,000 g/ha
Method: as §1, with “for 8 days” for “for one day”, “grown on” for “grown”, “in a” for “in the”

## C=Cc1c(N)nc(C2CC2)nc1C(=O)OC [Compound 2-61, 4-Amino-2-cyclopropyl-5-ethenyl-6-methoxycarbonyl-pyrimidine]
Solanum nigrum (SOLNI) [1]
  pest or weed control at 1000 g/ha: 100%
[2]
  pest or weed control at 1000 g/ha: 100%
[3]
  pest or weed control at 1000 g/ha: 40%
[4]
  pest or weed control at 1000 g/ha: 100%
Setaria faberi (SETFA) [5]
  pest or weed control at 1000 g/ha: 20%
[6]
  pest or weed control at 1000 g/ha: 80%
Solanum nigrum (SOLNI) [7]
  pest or weed control at 1000 g/ha: 100%
[8]
  pest or weed control at 1000 g/ha: 100%
[9]
  pest or weed control at 1000 g/ha: 40%
[10]
  pest or weed control at 1000 g/ha: 100%
Setaria faberi (SETFA) [11]
  pest or weed control at 1000 g/ha: 80%
[12]
  pest or weed control at 1000 g/ha: 60%

## C=C(C)c1c(N)nc(C2CC2)nc1C(=O)OC [Compound 2-64, 4-Amino-2-cyclopropyl-6-methoxycarbonyl-5-(prop-1-en-2-yl)-pyrimidine]
Solanum nigrum (SOLNI) [1]
  pest or weed control at 1000 g/ha: 80%
[2]
  pest or weed control at 1000 g/ha: 100%
[3]
  pest or weed control at 1000 g/ha: 20%
[4]
  pest or weed control at 1000 g/ha: 100%
Setaria faberi (SETFA) [5]
  pest or weed control at 1000 g/ha: 20%
[6]
  pest or weed control at 1000 g/ha: 0%
Solanum nigrum (SOLNI) [7]
  pest or weed control at 1000 g/ha: 80%
[8]
  pest or weed control at 1000 g/ha: 70%
[9]
  pest or weed control at 1000 g/ha: 10%
[10]
  pest or weed control at 1000 g/ha: 60%
Setaria faberi (SETFA) [11]
  pest or weed control at 1000 g/ha: 30%
[12]
  pest or weed control at 1000 g/ha: 40%

## CCC/C=C/c1c(N)nc(C2CC2)nc1C(=O)OC [Compound 2-65, 4-Amino-2-cyclopropyl-6-methoxycarbonyl-5-(pent-1-enyl)-pyrimidine]
Solanum nigrum (SOLNI) [1]; dose 250 g/ha
  pest or weed control at 250 g/ha: 0%
[2]; dose 250 g/ha
  pest or weed control at 250 g/ha: 0%
[3]; dose 250 g/ha
  pest or weed control at 250 g/ha: 0%
[4]; dose 250 g/ha
  pest or weed control at 250 g/ha: 0%
Setaria faberi (SETFA) [5]; dose 250 g/ha
  pest or weed control at 250 g/ha: 0%
[6]; dose 250 g/ha
  pest or weed control at 250 g/ha: 0%
Solanum nigrum (SOLNI) [7]; dose 250 g/ha
  pest or weed control at 250 g/ha: 40%
[8]; dose 250 g/ha
  pest or weed control at 250 g/ha: 40%
[9]; dose 250 g/ha
  pest or weed control at 250 g/ha: 0%
[10]; dose 250 g/ha
  pest or weed control at 250 g/ha: 20%
Setaria faberi (SETFA) [11]; dose 250 g/ha
  pest or weed control at 250 g/ha: 0%
[12]; dose 250 g/ha
  pest or weed control at 250 g/ha: 0%

## COC(=O)c1nc(C2CC2)nc(N)c1/C=C/C1CC1 [Compound 2-66, 4-Amino-2-cyclopropyl-5-(2-cyclopropyl-ethenyl)-6-methoxycarbonyl-pyrimidine]
Solanum nigrum (SOLNI) [1]
  pest or weed control at 1000 g/ha: 0%
[2]
  pest or weed control at 1000 g/ha: 0%
[3]
  pest or weed control at 1000 g/ha: 0%
Setaria faberi (SETFA) [5]
  pest or weed control at 1000 g/ha: 0%
[6]
  pest or weed control at 1000 g/ha: 0%
Solanum nigrum (SOLNI) [7]
  pest or weed control at 1000 g/ha: 60%
[8]
  pest or weed control at 1000 g/ha: 40%
[9]
  pest or weed control at 1000 g/ha: 0%
[10]
  pest or weed control at 1000 g/ha: 50%
Setaria faberi (SETFA) [11]
  pest or weed control at 1000 g/ha: 10%
[12]
  pest or weed control at 1000 g/ha: 0%

## COC(=O)c1nc(C2CC2)nc(N)c1C=C(C)C [Compound 2-69, 4-Amino-2-cyclopropyl-6-methoxycarbonyl-5-(2-methylprop-1-enyl)-pyrimidine]
Solanum nigrum (SOLNI) [1]
  pest or weed control at 1000 g/ha: 90%
[2]
  pest or weed control at 1000 g/ha: 70%
[3]
  pest or weed control at 1000 g/ha: 10%
[4]
  pest or weed control at 1000 g/ha: 100%
Setaria faberi (SETFA) [5]
  pest or weed control at 1000 g/ha: 0%
[6]
  pest or weed control at 1000 g/ha: 0%
Solanum nigrum (SOLNI) [7]
  pest or weed control at 1000 g/ha: 80%
[8]
  pest or weed control at 1000 g/ha: 70%
[9]
  pest or weed control at 1000 g/ha: 10%
[10]
  pest or weed control at 1000 g/ha: 20%
Setaria faberi (SETFA) [11]
  pest or weed control at 1000 g/ha: 10%
[12]
  pest or weed control at 1000 g/ha: 0%

## COC(=O)c1nc(-c2ccc(Cl)c(OC)c2F)nc(N)c1C1CC1 [Compound 27-58, 4-Amino-2-(4-chloro-2-fluoro-3-methoxyphenyl)-5-cyclopropyl-6-methoxycarbonyl-pyrimidine]
Solanum nigrum (SOLNI) [1]
  pest or weed control at 1000 g/ha: 0%
[2]
  pest or weed control at 1000 g/ha: 10%
[3]
  pest or weed control at 1000 g/ha: 0%
Setaria faberi (SETFA) [5]
  pest or weed control at 1000 g/ha: 0%
[6]
  pest or weed control at 1000 g/ha: 0%
Solanum nigrum (SOLNI) [7]
  pest or weed control at 1000 g/ha: 80%
[8]
  pest or weed control at 1000 g/ha: 60%
[9]
  pest or weed control at 1000 g/ha: 10%
[10]
  pest or weed control at 1000 g/ha: 90%
Setaria faberi (SETFA) [11]
  pest or weed control at 1000 g/ha: 40%
[12]
  pest or weed control at 1000 g/ha: 20%
